Assay results: patent US7138361B2, “Herbicidal heterocycles” (E. I. du Pont de Nemours and Company, priority 2000, dated 2006)

Tests used:
Assay type in all cases: in vivo
Nightshade = experiment: Test C preemergence
From the text: (§1) Seeds of plant species selected from bermudagrass (Cynodon dactylon), Surinam grass (Brachiaria decumbens), cocklebur (Xanthium strumarium), corn (Zea mays), crabgrass (Digitaria sanguinalis), woolly cupgrass (Eriochloa villosa), giant foxtail (Setaria faberii), goosegrass (Eleusine indica), johnsongrass (Sorghum halepense), kochia (Kochia scoparia), lambsquarters (Chenopodium album), morningglory (Ipomoea hederacea), yellow nutsedge (Cyperus esculentus), pigweed (Amaranthus retroflexus), common ragweed (Ambrosia elatior), soybean (Glycine max) and velvetleaf (Abutilon theophrasti) were planted and treated preemergence with test chemicals formulated in a non-phytotoxic solvent mixture which included a surfactant.
(§2) At the same time, plants selected from these crop and weed species and also winter barley (Hordeum vulgare), blackgrass (Alopecurus myosuroides), canary grass (Phalaris minor), chickweed (Stellaria media), downy brome (Bromus tectorum), green foxtail (Setaria viridis), Italian ryegrass (Lolium multiflorum), wheat (Triticum aestivum), wild oat (Avena fatua) and windgrass (Apera spica-venti) were treated with postemergence applications of some of the test chemicals formulated in the same manner. Plants ranged in height from 2 to 18 cm (1- to 4-leaf stage) for postemergence treatments. Plant species in the flooded paddy test consisted of rice (Oryza saliva), smallflower flatsedge (Cyperus difformis), duck salad (Heteranthera limosa) and barnyardgrass (Echinochloa crus-galli) grown to the 2-leaf stage for testing. Treated plants and controls were maintained in a greenhouse for 12 to 14 days, after which time all species were compared to controls and visually evaluated. Plant response ratings, summarized in Table C, are based on a scale of 0 to 100 where 0 is no effect and 100 is complete control. A dash (-) response means no test result.

Sunflower = experiment: Test C preemergence; details: Rate 125 g/ha; scale 0 to 100, 0 no effect, 100 complete control
From the text: as §1, §2

[1] = tested on: Surinam grass (Brachiaria decumbens); experiment: Test C preemergence
From the text: as §1, §2

[2] = tested on: bermudagrass (Cynodon dactylon); experiment: Test C preemergence
From the text: as §1, §2

[3] = tested on: cocklebur (Xanthium strumarium); experiment: Test C preemergence
From the text: as §1, §2

[4] = tested on: common ragweed (Ambrosia elatior); experiment: Test C preemergence
From the text: as §1, §2

corn (Zea mays) = experiment: Test C preemergence
From the text: as §1, §2

[5] = tested on: crabgrass (Digitaria sanguinalis); experiment: Test C preemergence
From the text: as §1, §2

[6] = tested on: giant foxtail (Setaria faberii); experiment: Test C preemergence
From the text: as §1, §2

[7] = tested on: goosegrass (Eleusine indica); experiment: Test C preemergence
From the text: as §1, §2

[8] = tested on: johnsongrass (Sorghum halepense); experiment: Test C preemergence
From the text: as §1, §2

kochia (Kochia scoparia) = experiment: Test C preemergence
From the text: as §1, §2

[9] = tested on: lambsquarters (Chenopodium album); experiment: Test C preemergence
From the text: as §1, §2

[10] = tested on: morningglory (Ipomoea hederacea); experiment: Test C preemergence
From the text: as §1, §2

[11] = tested on: pigweed (Amaranthus retroflexus); experiment: Test C preemergence
From the text: as §1, §2

soybean (Glycine max) = experiment: Test C preemergence
From the text: as §1, §2

[12] = tested on: velvetleaf (Abutilon theophrasti); experiment: Test C preemergence
From the text: as §1, §2

[13] = tested on: woolly cupgrass (Eriochloa villosa); experiment: Test C preemergence
From the text: as §1, §2

[14] = tested on: yellow nutsedge (Cyperus esculentus); experiment: Test C preemergence
From the text: as §1, §2

[15] = tested on: barnyardgrass (Echinochloa crus-galli); experiment: Test C flooded paddy test; details: for Barnyardgrass plant response rating: Flooded Paddy, scale 0 to 100, 0 no effect, 100 complete control; for Plant response rating, Barnyardgrass: flooded paddy test, scale 0 to 100 (0 no effect, 100 complete control)
In short: (§3)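 Plants were grown to the 2-leaf stage under flooded paddy conditions and treated. They were then kept in a greenhouse for 12 to 14 days and visually rated against untreated controls on a 0–100 scale, where 0 is no effect and 100 is complete control.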

rice (Oryza saliva) = experiment: Test C flooded paddy test; details: for Rice plant response rating: Flooded Paddy, scale 0 to 100, 0 no effect, 100 complete control; for Plant response rating, Rice: flooded paddy test, scale 0 to 100 (0 no effect, 100 complete control)
In short: as §3

[16] = Rate 125 g/ha, scale 0 to 100, 0 no effect, 100 complete control
[17] = Rate 250 g/ha, scale 0 to 100, 0 no effect, 100 complete control
[18] = preemergence, Rate 31 g/ha, scale 0 to 100
[19] = preemergence, Rate 62 g/ha, scale 0 to 100
[20] = preemergence, Rate 250 g/ha, scale 0 to 100, 0 no effect, 100 complete control

CCCC(C)c1ccn(C2SCN(c3cccc(OC(F)(F)F)c3)C2=O)n1 (stereo not drawn) [Compound 90]
Plant response rating, Nightshade (Nightshade; Rate 31 g/ha, scale 0 to 100): 0
Plant response rating, Nightshade (Nightshade; Rate 62 g/ha, scale 0 to 100): 0
Plant response rating, Nightshade (Nightshade; [16]): 0
Plant response rating, Nightshade (Nightshade; [17]): 0
Plant response rating, Sunflower (Sunflower): 0
Plant response rating, Surinam grass [1, 16]: 10
Plant response rating, Surinam grass [1, 18]: 0
Plant response rating, Surinam grass [1, 19]: 0
Plant response rating, Surinam grass [1, 20]: 40
Plant response rating, Bermudagrass [2, 16]: 100
Plant response rating, Bermudagrass [2, 18]: 0
Plant response rating, Bermudagrass [2, 19]: 0
Plant response rating, Bermudagrass [2, 20]: 100
Plant response rating, Cocklebur [3, 16]: 0
Plant response rating, Cocklebur [3, 18]: 0
Plant response rating, Cocklebur [3, 19]: 0
Plant response rating, Cocklebur [3, 20]: 0
Plant response rating, Ragweed, Common [4, 16]: 0
Plant response rating, Ragweed, Common [4, 18]: 0
Plant response rating, Ragweed, Common [4, 19]: 0
Plant response rating, Ragweed, Common [4, 20]: 0
Plant response rating, Corn (corn (Zea mays); [16]): 0
Plant response rating, Corn (corn (Zea mays); [18]): 0
Plant response rating, Corn (corn (Zea mays); [19]): 0
Plant response rating, Corn (corn (Zea mays); [20]): 10
Plant response rating, Crabgrass [5, 16]: 100
Plant response rating, Crabgrass [5, 18]: 80
Plant response rating, Crabgrass [5, 19]: 80
Plant response rating, Crabgrass [5, 20]: 100
Plant response rating, Foxtail, Giant [6, 16]: 0
Plant response rating, Foxtail, Giant [6, 18]: 0
Plant response rating, Foxtail, Giant [6, 19]: 40
Plant response rating, Foxtail, Giant [6, 20]: 40
Plant response rating, Goosegrass [7, 16]: 100
Plant response rating, Goosegrass [7, 18]: 20
Plant response rating, Goosegrass [7, 19]: 100
Plant response rating, Goosegrass [7, 20]: 100
Plant response rating, Johnsongrass [8, 16]: 70
Plant response rating, Johnsongrass [8, 18]: 10
Plant response rating, Johnsongrass [8, 19]: 10
Plant response rating, Johnsongrass [8, 20]: 100
Plant response rating, Kochia (kochia (Kochia scoparia); [16]): 40
Plant response rating, Kochia (kochia (Kochia scoparia); [18]): 0
Plant response rating, Kochia (kochia (Kochia scoparia); [19]): 0
Plant response rating, Kochia (kochia (Kochia scoparia); [20]): 80
Plant response rating, Lambsquarters [9, 16]: 100
Plant response rating, Lambsquarters [9, 18]: 10
Plant response rating, Lambsquarters [9, 19]: 100
Plant response rating, Lambsquarters [9, 20]: 100
Plant response rating, Morningglory [10, 16]: 0
Plant response rating, Morningglory [10, 18]: 0
Plant response rating, Morningglory [10, 19]: 0
Plant response rating, Morningglory [10, 20]: 0
Plant response rating, Pigweed [11, 16]: 0
Plant response rating, Pigweed [11, 18]: 0
Plant response rating, Pigweed [11, 19]: 60
Plant response rating, Pigweed [11, 20]: 100
Plant response rating, Soybean (soybean (Glycine max); [16]): 0
Plant response rating, Soybean (soybean (Glycine max); [18]): 0
Plant response rating, Soybean (soybean (Glycine max); [19]): 0
Plant response rating, Soybean (soybean (Glycine max); [20]): 0
Plant response rating, Velvetleaf [12, 16]: 0
Plant response rating, Velvetleaf [12, 18]: 0
Plant response rating, Velvetleaf [12, 19]: 0
Plant response rating, Velvetleaf [12, 20]: 0
Plant response rating, Cupgrass, Woolly [13, 16]: 10
Plant response rating, Cupgrass, Woolly [13, 18]: 0
Plant response rating, Cupgrass, Woolly [13, 19]: 0
Plant response rating, Cupgrass, Woolly [13, 20]: 60
Plant response rating, Nutsedge [14, 16]: 0
Plant response rating, Nutsedge [14, 18]: 0
Plant response rating, Nutsedge [14, 19]: 0
Plant response rating, Nutsedge [14, 20]: 0
Barnyardgrass plant response rating ([15]; Rate 250 g/ha): 90
Barnyardgrass plant response rating ([15]; Rate 500 g/ha): 100
Plant response rating, Barnyardgrass ([15]; Rate 62 g/ha): 30
Plant response rating, Barnyardgrass ([15]; Rate 125 g/ha): 60
Rice plant response rating (rice (Oryza saliva); Rate 250 g/ha): 0
Rice plant response rating (rice (Oryza saliva); Rate 500 g/ha): 20
Plant response rating, Rice (rice (Oryza saliva); Rate 62 g/ha): 0
Plant response rating, Rice (rice (Oryza saliva); Rate 125 g/ha): 0

CC(C)(C)c1ccn(C2CCN(c3cccc([S+]([O-])C(F)(F)F)c3)C2=O)n1 (stereo not drawn) [Compound 101]
Plant response rating, Nightshade (Nightshade; Rate 31 g/ha, scale 0 to 100): 0
Plant response rating, Nightshade (Nightshade; Rate 62 g/ha, scale 0 to 100): 0
Plant response rating, Nightshade (Nightshade; [16]): 90
Plant response rating, Nightshade (Nightshade; [17]): 100
Plant response rating, Sunflower (Sunflower): 0
Plant response rating, Surinam grass [1, 16]: 20
Plant response rating, Surinam grass [1, 18]: 0
Plant response rating, Surinam grass [1, 19]: 0
Plant response rating, Surinam grass [1, 20]: 40
Plant response rating, Bermudagrass [2, 16]: 100
Plant response rating, Bermudagrass [2, 18]: 40
Plant response rating, Bermudagrass [2, 19]: 40
Plant response rating, Bermudagrass [2, 20]: 100
Plant response rating, Cocklebur [3, 16]: 0
Plant response rating, Cocklebur [3, 18]: 0
Plant response rating, Cocklebur [3, 19]: 0
Plant response rating, Cocklebur [3, 20]: 50
Plant response rating, Ragweed, Common [4, 16]: 100
Plant response rating, Ragweed, Common [4, 18]: 0
Plant response rating, Ragweed, Common [4, 19]: 0
Plant response rating, Ragweed, Common [4, 20]: 100
Plant response rating, Corn (corn (Zea mays); [16]): 0
Plant response rating, Corn (corn (Zea mays); [18]): 0
Plant response rating, Corn (corn (Zea mays); [19]): 0
Plant response rating, Corn (corn (Zea mays); [20]): 60
Plant response rating, Crabgrass [5, 16]: 100
Plant response rating, Crabgrass [5, 18]: 90
Plant response rating, Crabgrass [5, 19]: 100
Plant response rating, Crabgrass [5, 20]: 100
Plant response rating, Foxtail, Giant [6, 16]: 40
Plant response rating, Foxtail, Giant [6, 18]: 0
Plant response rating, Foxtail, Giant [6, 19]: 40
Plant response rating, Foxtail, Giant [6, 20]: 100
Plant response rating, Goosegrass [7, 16]: 100
Plant response rating, Goosegrass [7, 18]: 10
Plant response rating, Goosegrass [7, 19]: 100
Plant response rating, Goosegrass [7, 20]: 100
Plant response rating, Johnsongrass [8, 16]: 40
Plant response rating, Johnsongrass [8, 18]: 0
Plant response rating, Johnsongrass [8, 19]: 10
Plant response rating, Johnsongrass [8, 20]: 90
Plant response rating, Kochia (kochia (Kochia scoparia); [16]): 0
Plant response rating, Kochia (kochia (Kochia scoparia); [18]): 0
Plant response rating, Kochia (kochia (Kochia scoparia); [19]): 0
Plant response rating, Kochia (kochia (Kochia scoparia); [20]): 0
Plant response rating, Lambsquarters [9, 16]: 100
Plant response rating, Lambsquarters [9, 18]: 0
Plant response rating, Lambsquarters [9, 19]: 0
Plant response rating, Lambsquarters [9, 20]: 100
Plant response rating, Morningglory [10, 16]: 0
Plant response rating, Morningglory [10, 18]: 0
Plant response rating, Morningglory [10, 19]: 0
Plant response rating, Morningglory [10, 20]: 100
Plant response rating, Pigweed [11, 16]: 0
Plant response rating, Pigweed [11, 18]: 0
Plant response rating, Pigweed [11, 19]: 0
Plant response rating, Pigweed [11, 20]: 10
Plant response rating, Soybean (soybean (Glycine max); [16]): 0
Plant response rating, Soybean (soybean (Glycine max); [18]): 0
Plant response rating, Soybean (soybean (Glycine max); [19]): 0
Plant response rating, Soybean (soybean (Glycine max); [20]): 50
Plant response rating, Velvetleaf [12, 16]: 50
Plant response rating, Velvetleaf [12, 18]: 20
Plant response rating, Velvetleaf [12, 19]: 20
Plant response rating, Velvetleaf [12, 20]: 90
Plant response rating, Cupgrass, Woolly [13, 16]: 20
Plant response rating, Cupgrass, Woolly [13, 18]: 0
Plant response rating, Cupgrass, Woolly [13, 19]: 0
Plant response rating, Cupgrass, Woolly [13, 20]: 100
Plant response rating, Nutsedge [14, 16]: 0
Plant response rating, Nutsedge [14, 18]: 0
Plant response rating, Nutsedge [14, 19]: 0
Plant response rating, Nutsedge [14, 20]: 0
Barnyardgrass plant response rating ([15]; Rate 250 g/ha): 50
Barnyardgrass plant response rating ([15]; Rate 500 g/ha): 90
Plant response rating, Barnyardgrass ([15]; Rate 62 g/ha): 0
Plant response rating, Barnyardgrass ([15]; Rate 125 g/ha): 40
Rice plant response rating (rice (Oryza saliva); Rate 250 g/ha): 80
Rice plant response rating (rice (Oryza saliva); Rate 500 g/ha): 90
Plant response rating, Rice (rice (Oryza saliva); Rate 62 g/ha): 0
Plant response rating, Rice (rice (Oryza saliva); Rate 125 g/ha): 80
